One data set concerns cat. The following applies: active ingredient; cited from earlier work.
A further data set relates to rat. Conditions: active ingredient; cited from earlier work.
A further data set concerns dog. Conditions: active ingredient; cited from earlier work.
For the next data set, the system named is mouse. The following applies: active ingredient; cited from earlier work.
The subject of another data set is infesting murine species. In kind it is in vivo. Conditions: same amount of anticoagulant.
For data set [1] the following is noted: WHO, 1995, cited from earlier work.
For data set [2] the following is noted: cited from earlier work.
A further data set concerns Mus musculus. The following applies: both genders and all ages of the Mus musculus; cited from earlier work.
The next data set has as its system murine population. Conditions: in vivo; cited from earlier work.
The next data set deals with Rattus norvegicus. Conditions: young prepubertal; females of Rattus norvegicus; cited from earlier work.
Where [3] appears, read: liver and kidney, two-phase course.

On to `O=c1oc2ccccc2c(O)c1C1CC(c2ccc(-c3ccc(Br)cc3)cc2)Cc2ccccc21` (stereo not drawn) [BRODIFACOUM, brodifacoum], for which the “a.p. LD50” value is 25 mg/kg in the data set with cat, 0.4 mg/kg in the data set on rat, 0.25 to 3.6 mg/kg with dog and 0.4 mg/kg in the data set on mouse.

As for `O=c1oc2ccccc2c(O)c1C(CC(O)c1ccc(-c2ccc(Br)cc2)cc1)c1ccccc1` (stereo not drawn) [BROMADIOLON, bromadiolon], the “a.p. LD50” value in the data set with cat is on record as greater than 25 mg/kg; with rat, 1.125 mg/kg; in the data set on dog, greater than 10.0 mg/kg; in the data set on mouse it was 1.75 mg/kg. The “disinfesting action with respect to that of brodifacoum” value in the data set with infesting murine species was “inferior”.

For `O=c1oc2ccccc2c(O)c1C1CC(c2ccc(-c3ccccc3)cc2)Cc2ccccc21` (stereo not drawn) [DIPHENACOUM, diphenacoum], the “a.p. LD50” value with cat is listed as greater than 100 mg/kg; in the data set with rat, 1.8 mg/kg; in the data set on dog, greater than 50.0 mg/kg; with mouse it was 0.8 mg/kg. In the data set on infesting murine species, the “disinfesting action with respect to that of brodifacoum” value is “inferior”. In [1] (setting [3]), the “elimination from both liver and kidney, rather rapid initial phase” value is 3 days. Also, the “elimination from both liver and kidney, second, much slower, phase” value in data set [1] (setting [3]) was 118 to 120 days. The “half-life in the pancreas” value in [1] (pancreas) is 182 days. The half-life in man in [2] is 11.5 days.

Regarding `OCC(O)CCl` (stereo not drawn) [α-chlorohydrin], the activity as chemosterilant result in the data set with Mus musculus and with Rattus norvegicus was “not active” throughout. The “eliminating of the treated murine population” value with murine population is recorded as “up to 85%”.

The values above are taken from patent publication EP2090164B1, “A rodenticide bait based on a synergetic association of anticoagulant active ingredients” (priority 2008, dated 2009).
